Data published in paper PMC8890653, “Cell-penetrating peptides containing the progesterone receptor polyproline domain inhibits EGF signaling and cell proliferation in lung cancer cells” (PLoS ONE, 2022).

System: PC9-ER cells
Assay: Cell viability (MTT) of Erlotinib-resistant cells
Conditions: Homo sapiens, PC-9/ER, 72 h, read-out: Inhibition of PC9-ER cell proliferation, Erlotinib alone

C#Cc1cccc(Nc2ncnc3cc(OCCOC)c(OCCOC)cc23)c1 [Erlotinib]
inhibition at 0.1 µM: 8%
